Source: the NIST ThermoML archive (doi:10.1016/j.fluid.2018.07.028)
± gives the expanded uncertainty stated by the source.

Assay: activity coefficient (dimensionless); of the first substance listed, at infinite dilution; xn = mol fraction of the nth substance listed
Conditions: 101.33 kPa, Liquid, Chromatography, x1 = 0

| Compound | activity coefficient (358.15 K) | activity coefficient (368.15 K) | activity coefficient (378.15 K) | activity coefficient (388.15 K) | activity coefficient (398.15 K) | activity coefficient (408.15 K) |
| --- | --- | --- | --- | --- | --- | --- |
| CCOC(C)=O [ethyl acetate] + CCCC[P+](CCCC)(CCCC)CCCC.O=S(=O)([N-]S(=O)(=O)C(F)(F)F)C(F)(F)F | 0.835 ± 0.054 | 0.869 ± 0.056 | 0.905 ± 0.057 | 0.939 ± 0.059 | 0.975 ± 0.061 | 1.01 ± 0.063 |
| c1ccccc1 [benzene] + CCCC[P+](CCCC)(CCCC)CCCC.O=S(=O)([N-]S(=O)(=O)C(F)(F)F)C(F)(F)F | 0.836 ± 0.054 | 0.869 ± 0.056 | 0.901 ± 0.057 | 0.933 ± 0.059 | 0.963 ± 0.061 | 0.994 ± 0.062 |
| C=C(C)c1ccccc1 [(1-methylethenyl)benzene] + CCCC[P+](CCCC)(CCCC)CCCC.O=S(=O)([N-]S(=O)(=O)C(F)(F)F)C(F)(F)F | 1.4 ± 0.09 | 1.46 ± 0.1 | 1.52 ± 0.1 | 1.58 ± 0.1 | 1.64 ± 0.11 | 1.7 ± 0.11 |
| CCC(C)CC [3-methylpentane] + CCCC[P+](CCCC)(CCCC)CCCC.O=S(=O)([N-]S(=O)(=O)C(F)(F)F)C(F)(F)F | 4.02 ± 0.27 | 4.04 ± 0.28 | 4.06 ± 0.28 | 4.09 ± 0.28 | 4.11 ± 0.28 | 4.13 ± 0.28 |
| CCCc1ccccc1 [propylbenzene] + CCCC[P+](CCCC)(CCCC)CCCC.O=S(=O)([N-]S(=O)(=O)C(F)(F)F)C(F)(F)F | 1.88 ± 0.13 | 1.93 ± 0.13 | 1.98 ± 0.13 | 2.03 ± 0.14 | 2.07 ± 0.14 | 2.12 ± 0.14 |
| CC(C)O [propan-2-ol] + CCCC[P+](CCCC)(CCCC)CCCC.O=S(=O)([N-]S(=O)(=O)C(F)(F)F)C(F)(F)F | 1.47 ± 0.1 | 1.42 ± 0.09 | 1.37 ± 0.09 | 1.33 ± 0.09 | 1.29 ± 0.08 | 1.26 ± 0.08 |
| C1CCCC1 [cyclopentane] + CCCC[P+](CCCC)(CCCC)CCCC.O=S(=O)([N-]S(=O)(=O)C(F)(F)F)C(F)(F)F | 2.33 ± 0.16 | 2.35 ± 0.16 | 2.37 ± 0.16 | 2.38 ± 0.16 | 2.4 ± 0.16 | 2.42 ± 0.16 |
| CCCC=O [butanal] + CCCC[P+](CCCC)(CCCC)CCCC.O=S(=O)([N-]S(=O)(=O)C(F)(F)F)C(F)(F)F | 0.669 ± 0.045 | 0.699 ± 0.047 | 0.729 ± 0.048 | 0.758 ± 0.05 | 0.787 ± 0.051 | 0.817 ± 0.053 |
| CCC(=O)CC [pentan-3-one] + CCCC[P+](CCCC)(CCCC)CCCC.O=S(=O)([N-]S(=O)(=O)C(F)(F)F)C(F)(F)F | 0.629 ± 0.043 | 0.66 ± 0.045 | 0.69 ± 0.05 | 0.721 ± 0.048 | 0.75 ± 0.049 | 0.781 ± 0.051 |
| C#CCCC [1-pentyne] + CCCC[P+](CCCC)(CCCC)CCCC.O=S(=O)([N-]S(=O)(=O)C(F)(F)F)C(F)(F)F | 1.52 ± 0.1 | 1.58 ± 0.1 | 1.64 ± 0.11 | 1.7 ± 0.11 | 1.76 ± 0.12 | 1.82 ± 0.12 |
| CC1CCCCC1 [methylcyclohexane] + CCCC[P+](CCCC)(CCCC)CCCC.O=S(=O)([N-]S(=O)(=O)C(F)(F)F)C(F)(F)F | 3.5 ± 0.24 | 3.49 ± 0.24 | 3.48 ± 0.24 | 3.48 ± 0.24 | 3.47 ± 0.24 | 3.46 ± 0.24 |
| Cc1ccccc1C [1,2-dimethylbenzene] + CCCC[P+](CCCC)(CCCC)CCCC.O=S(=O)([N-]S(=O)(=O)C(F)(F)F)C(F)(F)F | 1.39 ± 0.09 | 1.43 ± 0.09 | 1.48 ± 0.1 | 1.52 ± 0.1 | 1.57 ± 0.1 | 1.61 ± 0.11 |
| CC(C)CO [2-methyl-1-propanol] + CCCC[P+](CCCC)(CCCC)CCCC.O=S(=O)([N-]S(=O)(=O)C(F)(F)F)C(F)(F)F | 1.57 ± 0.1 | 1.52 ± 0.1 | 1.46 ± 0.1 | 1.41 ± 0.09 | 1.37 ± 0.09 | 1.33 ± 0.09 |
| C1COCCO1 [1,4-dioxane] + CCCC[P+](CCCC)(CCCC)CCCC.O=S(=O)([N-]S(=O)(=O)C(F)(F)F)C(F)(F)F | 0.795 ± 0.052 | 0.825 ± 0.053 | 0.853 ± 0.055 | 0.884 ± 0.056 | 0.911 ± 0.058 | 0.941 ± 0.059 |
| C1CCCCCC1 [cycloheptane] + CCCC[P+](CCCC)(CCCC)CCCC.O=S(=O)([N-]S(=O)(=O)C(F)(F)F)C(F)(F)F | 3.42 ± 0.23 | 3.41 ± 0.23 | 3.4 ± 0.23 | 3.39 ± 0.23 | 3.38 ± 0.23 | 3.37 ± 0.23 |
